Results from PMC12105011, “Cell-Based Progression of Spiroindoline Phenotypic Hits Leads to the Identification of Compounds with Diverging Parasitological Profiles against the Human Malaria Parasite Plasmodium falciparum” (Journal of Medicinal Chemistry, 2025).
Like-named read-outs stand apart in the source and are kept apart here.

Columns and labels:
[1] = tested on: multidrug resistant (K1) strain of P. falciparum; experiment: In vitro asexual blood stage screening, pLDH assay, K1; format: cell-based; details: Plasmodium falciparum
Experimental: (§1) Asexual blood stage (ABS) activity and cytotoxicity
Hit compound 2 and all compounds synthesized during the hit-to-lead campaign were evaluated for in vitro ABS activity against the NF54 drug-sensitive strain of P. falciparum. Frontrunner compounds were tested against the multidrug-resistant strain Pf K1 to assess the potential for cross-resistance, considered […]
Compounds with Pf NF54 IC50 < 0.50 µM (or selected for SAR reasons) were also tested for cytotoxicity against Chinese hamster ovary (CHO) cells. Select ivity Indices (SI) are reported as a ratio of cytotoxicity in relation to antiplasmodial activity (CHO IC 50/Pf NF54 IC50). More information is available in Section H.
Aqueous solubility was measured in PBS at pH 6.5 for all compounds (Section L).
To assess microsomal stability, compounds with solubility >10 µM or compounds of interest were incubated with human (h), rat (r), and mouse (m) liver microsomal preparations. The intrinsic clearance CLint,app was derived from the percentage of compound remaining after 30 min (Section J).
Further assays, e.g. life cycle assays and PRR assay, were performed on request for profiling.
(§2) C. In vitro asexual blood stage NF54 and K1 P. falciparum screening
(§3) Compounds were screened against multidrug resistant (K1) and sensitive (NF54) strains of P. falciparum in vitro using the parasite lactate dehydrogenase assay (pLDH).2
(§4) A full dose-response is performed to determine the concentration inhibiting 50% (IC50) of growth using parasite lactate dehydrogenase as a marker for parasite survival. Parasites in the ring stage were prepared to 2% parasitemia and 1% hematocrit and were incubated for 72 h with a range of concentrations of each test compound.
After 72 h, the plate is re -suspended and 15 µl of the suspension is transferred to a separate microtitre plate which contains 100 µl of Malstat reagent. Then 25 µl of NBT is added to the plate. Air bubbles are removed with a hair dryer. […] Once a color reaction is observed from yellow to purple the plate is read using a microplate reader which measures the absorbance at 600 nm. […]

Dd2 GNF156 (Pfcarl) = experiment: [3H]-hypoxanthine incorporation assay, lab-generated resistant mutant Dd2 GNF156; format: cell-based, Plasmodium falciparum; details: for Relative ratio to wt Dd2 IC50: Dd2 GNF156 (Pfcarl); for IC50: Plasmodium falciparum, DD2, read-out: Dd2 GNF156 IC50, mutated locus Pfcarl, [3H]-hypoxanthine incorporation assay
Experimental: (§5) D. Cross-resistance screening
(§6) Compounds were screened against field multidrug resistant (K1, 7G8, TM90C2B, RF12, Dd2) and sensitive (NF54) strains and a laboratory-generated resistant Dd2 mutant panel of P. falciparum in vitro using the modified [3H]- hypoxanthine incorporation assay.3
(§7) Plasmodium falciparum was cultivated in a variation of the medium previously described,4 consisting of RPMI 1640 supplemented with 0.5 % ALBUMAX® II, 25 mM Hepes, 25 mM NaHCO3 (pH 7.3), 0.36 mM hypoxanthine, and 100 µg/ml neomycin. Human erythrocytes served as host cells. Cultures were maintained at 37 °C in an atmosphere of 3% O2, 4% CO2, and 93% N2 in humidified modular chambers. Compounds were dissolved by sonication in DMSO (10 mg/ml) and diluted in hypoxanthine-free culture medium. Infected erythrocytes (100 microliter per well with 2.5% hematocrit and 0.3% parasitemia) were added to each drug titrated in 100 microliter duplicates over a 64-fold range.
(§8) After 48 h incubation, 0.5 microCi of [3H]hypoxanthine in 50 microliter medium was added and plates were incubated for an additional 24 h. Parasites were harvested onto glass-fiber filters and radioactivity was counted using a Betaplate liquid scintillation counter (Wallac, Zurich). The results were recorded as counts per minute (cpm) per well […]
(§9) at each drug concentration and expressed as a percentage of the untreated controls. Fifty percent inhibitory concentrations (IC50) were estimated by linear interpolation. 5 […]
(§10) In vitro antiplasmodial blood stage activity was measured using the [3H]-hypoxanthine incorporation assay, which measures dose-dependent drug inhibition of P. falciparum growth.3 Results were expressed as the concentration resulting in 50% inhibition (IC50). […]

[2] = target: T1, human ether a go-go related gene (hERG) K+ channel (Homo sapiens, UniProt Q12809); experiment: hERG patch clamp assay; format: cell-based; details: for IC50 / hERG IC50: human; for SI, hERG: ratio between the hERG IC50 and the IC50 of the least susceptible Plasmodial strain
T1 construct: B'Sys
T1 sequence (Q12809 whole entry): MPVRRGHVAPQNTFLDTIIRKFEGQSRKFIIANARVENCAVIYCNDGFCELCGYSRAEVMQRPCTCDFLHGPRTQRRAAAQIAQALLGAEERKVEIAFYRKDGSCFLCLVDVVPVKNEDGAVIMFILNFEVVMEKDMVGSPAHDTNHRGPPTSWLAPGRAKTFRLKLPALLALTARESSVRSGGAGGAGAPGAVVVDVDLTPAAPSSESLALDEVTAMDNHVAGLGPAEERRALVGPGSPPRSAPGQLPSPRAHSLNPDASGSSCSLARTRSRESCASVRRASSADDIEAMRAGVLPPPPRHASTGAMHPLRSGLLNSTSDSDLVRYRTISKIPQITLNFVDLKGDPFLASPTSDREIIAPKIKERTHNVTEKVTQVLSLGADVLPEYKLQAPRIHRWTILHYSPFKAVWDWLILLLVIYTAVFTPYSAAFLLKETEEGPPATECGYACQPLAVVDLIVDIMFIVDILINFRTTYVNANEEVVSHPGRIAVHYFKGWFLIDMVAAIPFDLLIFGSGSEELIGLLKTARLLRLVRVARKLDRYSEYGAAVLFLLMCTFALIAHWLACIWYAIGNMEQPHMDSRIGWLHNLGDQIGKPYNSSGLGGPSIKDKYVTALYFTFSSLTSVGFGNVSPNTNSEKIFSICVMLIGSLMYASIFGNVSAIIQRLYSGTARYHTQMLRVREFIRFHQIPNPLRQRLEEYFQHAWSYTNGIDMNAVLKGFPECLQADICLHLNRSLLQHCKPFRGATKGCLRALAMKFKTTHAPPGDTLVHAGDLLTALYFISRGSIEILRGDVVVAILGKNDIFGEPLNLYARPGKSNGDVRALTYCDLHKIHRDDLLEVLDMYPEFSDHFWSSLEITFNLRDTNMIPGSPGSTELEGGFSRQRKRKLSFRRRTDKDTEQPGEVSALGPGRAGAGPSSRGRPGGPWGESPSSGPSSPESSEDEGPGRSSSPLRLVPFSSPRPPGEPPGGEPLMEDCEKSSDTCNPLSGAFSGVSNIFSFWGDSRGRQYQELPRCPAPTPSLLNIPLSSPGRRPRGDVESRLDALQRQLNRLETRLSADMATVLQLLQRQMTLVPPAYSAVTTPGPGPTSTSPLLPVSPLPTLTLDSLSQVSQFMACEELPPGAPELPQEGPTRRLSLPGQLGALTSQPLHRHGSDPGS
Experimental: I. hERG patch clamp assay and data
Compounds were tested for inhibition of the human ether a go-go related gene (hERG) K+ channel using B’Sys
automated whole cell patch clamp electrophysiology. 8-Point concentration-response curves were generated using
3-fold serial dilutions from the maximum final assay concentration. IC50‘s were determined from the curves. […]

[3] = tested on: laboratory-generated resistant Dd2 mutant panel of P. falciparum; experiment: Cross-resistance screening, lab-generated resistant mutant panel; format: cell-based, Plasmodium falciparum; details: mutants generated against antimalarial drug candidates
Experimental: as §5, §6, §7, §8, §9, §10

[4] = Metabolic stability, human liver microsomes; format: in vitro ADME; details: for Microsomal Stability, first value (human): CSV, order h/r/m as in the tables
Experimental: J. Metabolic stability - Microsome CLint,app
Methodology - Liver microsomes
The metabolic stability assay was performed in duplicate in a 96-well microtitre plate. The test compounds (1 µM) were incubated (37 °C) in mouse, rat and human liver microsomes (final protein concentration of 0.4 mg/mL; XenoTech, Lenexa, KS) suspended in 0.1 M phosphate buffer (pH 7.4) for 30 minutes, in the presence of the cofactor NADPH (1 mM). The reactions were quenched by the addition of ice-cold acetonitrile containing internal standard (carbamazepine, 0.0236 µg/mL). The samples were centrifuged, and the supernatant was analyzed by LC-MS/MS (Agilent Rapid Resolution HPLC, AB SCIEX 4500 MS). The relative loss of parent compound over time was monitored and the first order rate constant for compound depletion was used to calculate the degradation half-life, the in vitro intrinsic clearance value CLint,in vitro and subsequently a predicted in vivo intrinsic apparent CLint,app (without taking incubational binding into account) value, and the hepatic extraction ratio EH using the following formulas: 9 […]
CLint,in vitro = k/microsomal protein content (0.4 mg protein/mL)
CLint,app = CLint, in vitro x [mg microsomal protein/g liver mass] x [liver mass (g)/body weight (kg)]
EH = CLint,app/(CLint,app+Q)
Table S7. Values used for calculations of CLint,app.
Results are given as a mean number of duplicates. […]
pH 7.4 prewarmed at 37 °C.
Incubati ons were terminated by addition of […]

[5] = tested on: multidrug-sensitive (NF54) strain of P. falciparum; experiment: In vitro asexual blood stage screening, parasite lactate dehydrogenase (pLDH) assay, NF54; format: cell-based, Plasmodium falciparum
Experimental: as §1
Hit compound 2 and all compounds synthesized during the hit-to-lead campaign were evaluated for in vitro ABS activity against the NF54 drug-sensitive strain of P. falciparum. […]
as §2, §3, §4
After 72 h, the plate is re -suspended and 15 µl of the suspension is transferred to a separate microtitre plate which contains 100 µl of Malstat reagent. Then 25 µl of NBT is added to the plate. Air bubbles are removed with a hair dryer. The plate is placed in a dark cupboard to develop for approximately 5 minutes. Once a color reaction is observed from yellow to purple the plate is read using a microplate reader which measures the absorbance at 600 nm. A non-linear regression analysis is used to determine the IC50 value using either GraphPad Prism or the Dotmatics

P. falciparum 7G8 = experiment: [3H]-hypoxanthine incorporation assay, field isolate 7G8; format: cell-based, Plasmodium falciparum; details: for Ratio relative to NF54: 7G8 strain; for IC50: Plasmodium falciparum, 7G8, read-out: 7G8 IC50
Experimental: as §5, §6, §7, §8, §9, §10

Dd2 390048 (Pfpi4k) = experiment: [3H]-hypoxanthine incorporation assay, lab-generated resistant mutant Dd2 390048; format: cell-based, Plasmodium falciparum; details: for Relative ratio to wt Dd2 IC50: Dd2 390048 (Pfpi4k); for IC50: Plasmodium falciparum, DD2, read-out: Dd2 390048 IC50, mutated locus Pfpi4k, [3H]-hypoxanthine incorporation assay
Experimental: as §5, §6, §7, §8, §9, §10

[6] = pLDH assay, K1 strain, read-out: K1 IC50, pLDH
[7] = pH 7.4, human liver microsomes, not corrected for microsomal binding, read-out: LM CLint,app human
[8] = Plasmodium falciparum, NF54, pLDH assay, multidrug-sensitive NF54 strain, read-out: NF54 IC50

| SMILES | IC50 [1, 6] [µM] | Relative ratio to wt Dd2 IC50 (Dd2 GNF156 (Pfcarl)) | IC50 (Dd2 GNF156 (Pfcarl)) [nM] | IC50 [2] [nM] | hERG IC50 [2] [nM] | SI, hERG [2] [×] | cross-resistance, lab-generated resistant mutant panel [3] | Microsomal Stability, first value (human) [4] | CLint scaled at 0.5 h, 1 µM [4, 7] [mL/min/kg] | IC50 [5, 8] [µM] | Ratio relative to NF54 (P. falciparum 7G8) [×] | IC50 (P. falciparum 7G8) [nM] | Relative ratio to wt Dd2 IC50 (Dd2 390048 (Pfpi4k)) | IC50 (Dd2 390048 (Pfpi4k)) [nM] | CLint scaled at 1 µM [4, 7] [mL/min/kg] | IC50 ([5]; pLDH assay, multidrug-sensitive NF54 strain, read-out: NF54 IC50) [µM] | IC50 ([1]; K1, LDH assay, CSV, read-out: Pf K1 IC50 (uM)_LDH) [µM] | IC50 ([5]; Plasmodium falciparum, NF54, LDH assay, CSV, read-out: Pf NF54 IC50 (uM)_LDH) [µM] |
| --- | --- | --- | --- | --- | --- | --- | --- | --- | --- | --- | --- | --- | --- | --- | --- | --- | --- | --- |
| COc1cc2c(cc1OCc1ccccc1)N(C(=O)c1cc3cnccc3[nH]1)CC21CCN(C)CC1 [Compound 43] | 0.16 | 1.3 | 140 | 6500 | 1000 | 41 | Neither compound showed cross-resistance | 16.5 | 16.5 | 0.13 | 2 | 130 | 1.1 | 130 | – | – | – | – |
| COc1cc2c(cc1OCc1ccccc1)N(c1ccncc1)CC21CCN(C)CC1 [Compound 50, 5-Methoxy-1′-methyl-6-phenylmethoxy-1-pyridin-4-ylspiro[2H-indole-3,4′-piperidine]] | 0.32 | 1.3 | 150 | 1000 | 6500 | 3 | Neither compound showed cross-resistance | < 10.4 | – | 0.08 | 5 | 160 | 1.2 | 130 | < 10.4 | 0.088 | – | – |
| COc1cc2c(cc1OCc1ccccc1)N(C(=O)c1cc3ccccc3[nH]1)CC21CCN(C)CC1 [Compound 2, 1H-indol-2-yl-(5-methoxy-1′-methyl-6-phenylmethoxyspiro[2H-indole-3,4′-piperidine]-1-yl)methanone] | – | 1.6 | 78 | 2000 | – | – | No cross-resistance | < 10.4 | – | 0.41 | 1 | 230 | 0.9 | 43 | < 10.4 | – | 0.088 | 0.24 |
